The results in this text go back to patent publication US20030022871A1, “Method for modulating tumor growth and metastasis of tumor cells” (priority 2002, published 2003).

In assay [1] the target is T1, E12 (Homo sapiens, UniProt P15923).
T1 construct: expressed in transfected cells
T1 sequence (P15923 1-654): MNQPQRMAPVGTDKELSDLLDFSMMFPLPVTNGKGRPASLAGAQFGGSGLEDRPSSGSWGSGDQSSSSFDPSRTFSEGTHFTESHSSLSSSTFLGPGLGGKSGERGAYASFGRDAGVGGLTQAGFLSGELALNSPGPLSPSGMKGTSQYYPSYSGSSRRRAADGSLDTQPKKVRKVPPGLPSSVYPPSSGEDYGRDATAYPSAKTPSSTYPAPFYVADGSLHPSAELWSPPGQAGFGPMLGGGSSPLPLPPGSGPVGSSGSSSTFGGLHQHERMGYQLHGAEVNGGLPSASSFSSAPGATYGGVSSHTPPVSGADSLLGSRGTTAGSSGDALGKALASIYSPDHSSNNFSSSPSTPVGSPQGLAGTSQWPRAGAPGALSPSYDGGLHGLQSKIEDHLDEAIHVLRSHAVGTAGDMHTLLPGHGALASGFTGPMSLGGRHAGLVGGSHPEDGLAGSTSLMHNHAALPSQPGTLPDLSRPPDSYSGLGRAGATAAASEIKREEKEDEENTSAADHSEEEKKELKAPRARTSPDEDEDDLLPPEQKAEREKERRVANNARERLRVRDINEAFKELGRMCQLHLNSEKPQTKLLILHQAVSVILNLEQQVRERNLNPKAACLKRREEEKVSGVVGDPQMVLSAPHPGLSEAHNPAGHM
Kind of assay: Native polyacrylamide gel binding of tritiated tetracycline to protein. The conditions noted are these: 10-30-fold molar excess of tritiated tetracycline, PBS, room temperature 30 minutes, 8% native gel autoradiogram. How it is done:
(§1) Radiolabeled tetracycline (tritiated) was mixed with purified Id1 protein and other proteins separately to permit contact between the labeled tetracycline and the proteins. […] The complexes could then be visualized in an autoradiogram of the gel, e.g., exposure of the gel to x-ray film.
(§2) In this experiment, a 10-30-fold molar excess of tritiated tetracycline was added to the indicated proteins separately in 10 Tl reaction tube containing one of the proteins and phosphate buffered saline at physiological pH. Proteins used in this experiment were:
(§3) The mixtures were incubated at room temperature for 30 minutes. Bromophenol blue was added to each sample at 0.01% (v/v). The samples were then electrophoresed on an 8% native polyacrylamide gel.
(§4) After electrophoresing the samples, the gel was dried and exposed to autoradiographic film for 12 hours to make an autoradiogram of the gel.

The target of another assay is T2, E47 (Homo sapiens, UniProt P15923).
T2 sequence (P15923 1-651 isoform P15923-2): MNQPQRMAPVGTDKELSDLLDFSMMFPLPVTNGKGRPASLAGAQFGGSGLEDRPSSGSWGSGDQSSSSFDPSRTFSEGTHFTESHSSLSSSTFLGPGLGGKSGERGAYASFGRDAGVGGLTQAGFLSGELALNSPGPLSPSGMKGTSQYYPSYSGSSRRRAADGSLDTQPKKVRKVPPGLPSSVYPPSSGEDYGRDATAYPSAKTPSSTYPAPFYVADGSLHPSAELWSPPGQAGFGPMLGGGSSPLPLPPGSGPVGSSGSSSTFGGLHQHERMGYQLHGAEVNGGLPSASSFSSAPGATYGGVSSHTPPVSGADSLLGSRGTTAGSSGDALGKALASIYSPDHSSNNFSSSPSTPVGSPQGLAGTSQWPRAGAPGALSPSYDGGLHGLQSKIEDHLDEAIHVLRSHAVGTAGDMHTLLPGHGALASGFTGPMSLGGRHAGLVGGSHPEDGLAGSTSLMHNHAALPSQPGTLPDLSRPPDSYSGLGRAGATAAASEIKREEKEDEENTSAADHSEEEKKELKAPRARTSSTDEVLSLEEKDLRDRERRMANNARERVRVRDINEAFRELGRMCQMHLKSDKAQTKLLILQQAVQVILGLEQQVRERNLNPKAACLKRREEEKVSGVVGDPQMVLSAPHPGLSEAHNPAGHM
Described as above. The conditions noted are these: 10-30-fold molar excess of tritiated tetracycline, PBS, room temperature 30 minutes, 8% native gel autoradiogram. The protocol: as §1, §2, §3, §4

For assay [2], the system named is Hsp90 (heat shock protein 90). Described as above. The conditions noted are these: 10-30-fold molar excess of tritiated tetracycline, PBS, room temperature 30 minutes, 8% native gel autoradiogram. How it is done: as §1, §2, §3, §4
Assay [3] relates to Id old, an old preparation of Id in which the protein's conformation is perturbed. Described as above. The note with it: 10-30-fold molar excess of tritiated tetracycline, PBS, room temperature 30 minutes, 8% native gel autoradiogram. How it is done:
as §1, §2, §3, §4

In assay [4] the test system is Id1 new, the normal protein (native Id1). The assay is described as above. The note with it: 10-30-fold molar excess of tritiated tetracycline, PBS, room temperature 30 minutes, 8% native gel autoradiogram. How it is done: as §1, §2, §3, §4
A further assay has as its target T3, MyoD (Homo sapiens, UniProt P15172).
T3 sequence (P15172 1-320): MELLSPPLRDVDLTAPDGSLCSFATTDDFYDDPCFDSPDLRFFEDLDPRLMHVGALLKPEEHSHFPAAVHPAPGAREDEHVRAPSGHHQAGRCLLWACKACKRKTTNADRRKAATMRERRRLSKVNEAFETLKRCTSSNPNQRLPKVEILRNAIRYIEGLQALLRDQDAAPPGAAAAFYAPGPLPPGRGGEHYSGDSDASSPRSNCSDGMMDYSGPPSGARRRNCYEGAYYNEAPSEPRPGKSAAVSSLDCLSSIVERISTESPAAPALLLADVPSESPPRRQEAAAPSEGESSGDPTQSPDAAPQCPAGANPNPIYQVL
Described as above. The note with it: 10-30-fold molar excess of tritiated tetracycline, PBS, room temperature 30 minutes, 8% native gel autoradiogram. How it is done:
as §1, §2, §3, §4

Assay [5] has as its target T4, Id1 (Homo sapiens, UniProt P41134).
T4 sequence (P41134 1-155): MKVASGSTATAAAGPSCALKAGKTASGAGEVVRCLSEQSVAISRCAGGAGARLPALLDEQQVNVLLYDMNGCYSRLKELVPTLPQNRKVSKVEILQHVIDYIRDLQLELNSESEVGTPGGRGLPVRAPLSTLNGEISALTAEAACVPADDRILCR
In words: Gel shift: Id1 antagonism of E47 binding to radiolabeled DNA. It counts as biochemical. How it is done:
Purified Id1 and its target protein E12 are mixed to together in vitro, and the ability of Id1 to antagonize DNA binding capacity of E12 is measured. To measure E12 DNA binding activity, the mixtures were incubated with radiolabeled DNA sequences to which E12 binds and the protein/DNA complexes resolved on a native polyacrylamide gel as described [Benezra, 1994 #463].
In this experiment, 50 nanograms of E47 protein (described in Example I) was present in reaction mixtures of 100, 200, and 400 nanograms of Id1, designated +, ++, and +++ respectively in FIG. 2. Tetracycline was added to the reactions as indicated (+) to about 200 Tg/ml final concentration. Radiolabeled DNA to which E47 binds was then introduced in each mixture. […] Each of the mixtures was permitted to incubate at room temperature for about 30 minutes. Then, the mixtures were electrophoresed in an 8% native polyacrylamide gel as described in Benezra, 1994.
After electrophoresing the samples, the gel was dried and exposed to autoradiographic film to make an autoradiograph of the gel.

The target in assay [6] is T4, Id1. In words: 4R-TK-CAT reporter assay with E12 and Id1 plasmids in mammalian culture cells. The assay is classed as cell-based. The text has this:
(§5) Plasmids capable of expressing proteins when introduced into mammalian culture cells were used to test the activity of those proteins. In the assay depicted below, a plasmid that contains sequences to which the E12 protein binds upstream of a reporter gene (4R-TK-CAT) ix mixed with an E12 encoding plasmid and an Id plasmid to see if Id can inhibit the ability of E12 protein to bind and activate the reporter gene, in a similar to that described in Pesce, 1993 #163. If E12 binds to its sequence in the 4R-TK-CAT vector, it causes expression of the chloramphenical acetyltransferase (CAT) gene. The protein product of the CAT gene has an enzymatic activity that can be quantified. Uptake of the various plasmids was normalized to the expression of luciferase activity from a separate plasmid added in equal amounts to all cultures.
(In general: In a reporter assay the amount or activity of a reporter protein is the signal.)

The target of assay [7] is T1, E12. In words: 4R-TK-CAT reporter assay with E12 plasmid alone in mammalian culture cells. The conditions noted are these: E12 plasmid without Id1, tetracycline 100. The assay is classed as cell-based.
Source text: as §5

On to `CN(C)[C@@H]1C(O)=C(C(N)=O)C(=O)[C@@]2(O)C(O)=C3C(=O)c4c(O)cccc4[C@@](C)(O)[C@H]3C[C@@H]12` [tetracycline, [4S-(4I,5aI,5aI,6J,12aI)]-4-(Dimethylamino)-1,4,4a,5,5a,6-11,12a-octahydro-3,6, 10,12,12a-peiztaiydroxy-6-methyl-1,11-dioxo-2-naphthacenecarboxamide], for which the “Binding of radiolabeled tetracycline to E12 (lane 2)” value at E12 [1] is reported as “did not bind”. The “Binding of radiolabeled tetracycline to E47 (lane 6)” value at E47 is listed as “did not bind”. Besides, in assay [2], the “Binding of radiolabeled tetracycline to Hsp90 (lane 1)” value is “did not bind”. In assay [3], the “Binding of radiolabeled tetracycline to old Id having a perturbed conformation (lane 3)” value is “no radiolabeled tetracycline was detected”. In assay [4], the “Binding of radiolabeled tetracycline to native Id1 (lane 4)” value is “bound to native Id1”. Also, the “Binding of radiolabeled tetracycline to MyoD (lane 5)” value on MyoD was “did not bind”. Further, the “E47/DNA complex band intensity with tetracycline (lane 4) versus without (lane 3)” value on Id1 [5] (50 nanograms E47, 100 nanograms Id1, tetracycline about 200 Tg/ml, same said for lanes 6 vs 5 and 8 vs 7 (200, 400 nanograms Id1)) is given as “much more intense”. Moreover, at Id1 [5] (tetracycline about 200 Tg/ml, 50 nanograms E47, 100-400 nanograms Id1), the “Effect on Id activity, i.e. dimerizing with a protein member of the HLH super family, in vitro” value is “clearly inhibits Id activity”. Further, at Id1 [6] (Id1 10:1 molar excess over E12, tetracycline 100), the “Effect of tetracycline on Id1 inhibition of E12 (4R-TK-CAT reporter), Id1 high” value is reported as “no longer effective”. Further, the “E12 binding activity (4R-TK-CAT reporter) in presence of tetracycline, Id1 (low)” value at Id1 [6] (Id1 plasmid at 3:1 molar excess of E12, tetracycline 100) is “partially restored”. At E12 [7], the “Effect of tetracycline on E12 activation of 4R-TK-CAT” value is recorded as “not effected”.
